Experimental data taken from PubChem BioAssay AID2060499 (Molecular Pharmacology Branch, DTP, NCI, 2025).

Test system: 777334-354-R2-J4-PDC tumor spheroids with HUVEC/MSC, viability
Test: Anticancer human tumor 777334-354-R2-J4-PDC patient-derived pancreatic adenocarcinoma cell line growth inhibition [GQUAD]
Details: for IC50: curve of first compound; for viability, T/C: stronger effect = lower value
Summary of the method: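 Multi-cell-type spheroids of tumor cells with HUVEC and mesenchymal stem cells, treated with drug combinations. Concentrations descend in half-log steps from near clinical Cmax, or from 10 microM where Cmax is unknown; viability read-out.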

[1] = second compound 0.0316 µM, first compound 0.0316 µM
[2] = second compound 0.0316 µM, first compound 0.1 µM
[3] = second compound 0.0316 µM, first compound 0.316 µM
[4] = second compound 0.0316 µM, first compound 1 µM
[5] = second compound 0.0316 µM, first compound 3.16 µM
[6] = second compound 0.0316 µM, first compound 10 µM
[7] = second compound 0.1 µM, first compound 0.0316 µM
[8] = second compound 0.1 µM, first compound 0.1 µM
[9] = second compound 0.1 µM, first compound 0.316 µM
[10] = second compound 0.1 µM, first compound 1 µM
[11] = second compound 0.1 µM, first compound 3.16 µM
[12] = second compound 0.1 µM, first compound 10 µM
[13] = second compound 0.316 µM, first compound 0.0316 µM
[14] = second compound 0.316 µM, first compound 0.1 µM
[15] = second compound 0.316 µM, first compound 0.316 µM
[16] = second compound 0.316 µM, first compound 1 µM
[17] = second compound 0.316 µM, first compound 3.16 µM
[18] = second compound 0.316 µM, first compound 10 µM
[19] = second compound 1 µM, first compound 0.0316 µM
[20] = second compound 1 µM, first compound 0.1 µM
[21] = second compound 1 µM, first compound 0.316 µM
[22] = second compound 1 µM, first compound 1 µM
[23] = second compound 1 µM, first compound 3.16 µM
[24] = second compound 1 µM, first compound 10 µM
[25] = second compound 3.16 µM, first compound 0.0316 µM
[26] = second compound 3.16 µM, first compound 0.1 µM
[27] = second compound 3.16 µM, first compound 0.316 µM
[28] = second compound 3.16 µM, first compound 1 µM
[29] = second compound 3.16 µM, first compound 3.16 µM
[30] = second compound 3.16 µM, first compound 10 µM
[31] = second compound 10 µM, first compound 0.0316 µM
[32] = second compound 10 µM, first compound 0.1 µM
[33] = second compound 10 µM, first compound 0.316 µM
[34] = second compound 10 µM, first compound 1 µM
[35] = second compound 10 µM, first compound 3.16 µM
[36] = second compound 10 µM, first compound 10 µM
[37] = second compound 0.0316 µM, first compound 0.000999 µM
[38] = second compound 0.0316 µM, first compound 0.00316 µM
[39] = second compound 0.0316 µM, first compound 0.00999 µM
[40] = second compound 0.0316 µM, first compound 0.0999 µM
[41] = second compound 0.1 µM, first compound 0.000999 µM
[42] = second compound 0.1 µM, first compound 0.00316 µM
[43] = second compound 0.1 µM, first compound 0.00999 µM
[44] = second compound 0.1 µM, first compound 0.0999 µM
[45] = second compound 0.316 µM, first compound 0.000999 µM
[46] = second compound 0.316 µM, first compound 0.00316 µM
[47] = second compound 0.316 µM, first compound 0.00999 µM
[48] = second compound 0.316 µM, first compound 0.0999 µM
[49] = second compound 1 µM, first compound 0.000999 µM
[50] = second compound 1 µM, first compound 0.00316 µM
[51] = second compound 1 µM, first compound 0.00999 µM
[52] = second compound 1 µM, first compound 0.0999 µM
[53] = second compound 3.16 µM, first compound 0.000999 µM
[54] = second compound 3.16 µM, first compound 0.00316 µM
[55] = second compound 3.16 µM, first compound 0.00999 µM
[56] = second compound 3.16 µM, first compound 0.0999 µM
[57] = second compound 10 µM, first compound 0.000999 µM
[58] = second compound 10 µM, first compound 0.00316 µM
[59] = second compound 10 µM, first compound 0.00999 µM
[60] = second compound 10 µM, first compound 0.0999 µM
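Also: spheroids exposed to compounds for 7 days before readout.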

C=CC(=O)N1CCN(c2nc(=O)n(-c3c(C)ccnc3C(C)C)c3nc(-c4c(O)cccc4F)c(F)cc23)C(C)C1 (stereo not drawn) + CN(C)c1ccc(Nc2c3ccc(NC(=O)CCN4CCCC4)cc3nc3cc(NC(=O)CCN4CCCC4)ccc23)cc1
IC50 (second compound 0.0316 µM): > 10 µM
IC50 (second compound 0.1 µM): > 10 µM
IC50 (second compound 0.316 µM): > 10 µM
IC50 (second compound 1 µM): > 10 µM
IC50 (second compound 3.16 µM): > 10 µM
IC50 (second compound 10 µM): > 10 µM
viability, T/C [1]: 102%
viability, T/C [2]: 97%
viability, T/C [3]: 115%
viability, T/C [4]: 100%
viability, T/C [5]: 116%
viability, T/C [6]: 118%
viability, T/C [7]: 89.5%
viability, T/C [8]: 95.1%
viability, T/C [9]: 104%
viability, T/C [10]: 128%
viability, T/C [11]: 120%
viability, T/C [12]: 107%
viability, T/C [13]: 98.2%
viability, T/C [14]: 109%
viability, T/C [15]: 103%
viability, T/C [16]: 113%
viability, T/C [17]: 106%
viability, T/C [18]: 109%
viability, T/C [19]: 92.8%
viability, T/C [20]: 86.7%
viability, T/C [21]: 94.2%
viability, T/C [22]: 105%
viability, T/C [23]: 115%
viability, T/C [24]: 97.7%
viability, T/C [25]: 84.6%
viability, T/C [26]: 87.2%
viability, T/C [27]: 90.5%
viability, T/C [28]: 107%
viability, T/C [29]: 112%
viability, T/C [30]: 95%
viability, T/C [31]: 76.7%
viability, T/C [32]: 76.3%
viability, T/C [33]: 84%
viability, T/C [34]: 90.5%
viability, T/C [35]: 99.5%
viability, T/C [36]: 75.5%

CCc1c2c(nc3ccc(O)cc13)-c1cc3c(c(=O)n1C2)COC(=O)[C@]3(O)CC + CN(C)c1ccc(Nc2c3ccc(NC(=O)CCN4CCCC4)cc3nc3cc(NC(=O)CCN4CCCC4)ccc23)cc1
IC50 (second compound 0.0316 µM): 0.00523 µM
IC50 (second compound 0.1 µM): 0.00426 µM
IC50 (second compound 0.316 µM): 0.00524 µM
IC50 (second compound 1 µM): 0.00496 µM
IC50 (second compound 3.16 µM): 0.00316 µM
IC50 (second compound 10 µM): 0.00478 µM
viability, T/C [37]: 105%
viability, T/C [38]: 57.8%
viability, T/C [39]: 38.6%
viability, T/C [1]: 23.4%
viability, T/C [40]: 15.9%
viability, T/C [3]: 9.58%
viability, T/C [41]: 85.1%
viability, T/C [42]: 51.9%
viability, T/C [43]: 39.6%
viability, T/C [7]: 22.4%
viability, T/C [44]: 14.7%
viability, T/C [9]: 11.4%
viability, T/C [45]: 79.6%
viability, T/C [46]: 61.9%
viability, T/C [47]: 34.6%
viability, T/C [13]: 21.4%
viability, T/C [48]: 15.3%
viability, T/C [15]: 9.02%
viability, T/C [49]: 84.3%
viability, T/C [50]: 57%
viability, T/C [51]: 38.8%
viability, T/C [19]: 23.9%
viability, T/C [52]: 13.8%
viability, T/C [21]: 8.31%
viability, T/C [53]: 74.9%
viability, T/C [54]: 49.3%
viability, T/C [55]: 31.9%
viability, T/C [25]: 24.7%
viability, T/C [56]: 15.9%
viability, T/C [27]: 9.07%
viability, T/C [57]: 79.5%
viability, T/C [58]: 57.9%
viability, T/C [59]: 35.8%
viability, T/C [31]: 26.8%
viability, T/C [60]: 19.6%
viability, T/C [33]: 9.4%

Cc1cccc(N(C)C(=O)C2C(O)CCN2c2nc(C)cc(C(F)(F)F)c2C#N)c1 (stereo not drawn) + CN(C)c1ccc(Nc2c3ccc(NC(=O)CCN4CCCC4)cc3nc3cc(NC(=O)CCN4CCCC4)ccc23)cc1
IC50 (second compound 0.0316 µM): > 10 µM
IC50 (second compound 0.1 µM): > 10 µM
IC50 (second compound 0.316 µM): > 10 µM
IC50 (second compound 1 µM): > 10 µM
IC50 (second compound 3.16 µM): > 10 µM
IC50 (second compound 10 µM): 10 µM
viability, T/C [1]: 89.3%
viability, T/C [2]: 87.3%
viability, T/C [3]: 101%
viability, T/C [4]: 87.2%
viability, T/C [5]: 93.2%
viability, T/C [6]: 89.7%
viability, T/C [7]: 87.1%
viability, T/C [8]: 93.3%
viability, T/C [9]: 85.1%
viability, T/C [10]: 93.1%
viability, T/C [11]: 95.2%
viability, T/C [12]: 90.9%
viability, T/C [13]: 95.3%
viability, T/C [14]: 79.1%
viability, T/C [15]: 94.8%
viability, T/C [16]: 89.1%
viability, T/C [17]: 106%
viability, T/C [18]: 88.5%
viability, T/C [19]: 90.7%
viability, T/C [20]: 82.5%
viability, T/C [21]: 76.6%
viability, T/C [22]: 84.1%
viability, T/C [23]: 96.7%
viability, T/C [24]: 81.8%
viability, T/C [25]: 77%
viability, T/C [26]: 71.2%
viability, T/C [27]: 85.1%
viability, T/C [28]: 75.3%
viability, T/C [29]: 80.1%
viability, T/C [30]: 80.6%
viability, T/C [31]: 73.7%
viability, T/C [32]: 79%
viability, T/C [33]: 69.9%
viability, T/C [34]: 71.7%
viability, T/C [35]: 62.8%
viability, T/C [36]: 50%

Cn1ncnc1[C@H]1c2n[nH]c(=O)c3cc(F)cc(c23)N[C@@H]1c1ccc(F)cc1 + CN(C)c1ccc(Nc2c3ccc(NC(=O)CCN4CCCC4)cc3nc3cc(NC(=O)CCN4CCCC4)ccc23)cc1
IC50 (second compound 0.0316 µM): > 0.316 µM
IC50 (second compound 0.1 µM): > 0.316 µM
IC50 (second compound 0.316 µM): > 0.316 µM
IC50 (second compound 1 µM): > 0.316 µM
IC50 (second compound 3.16 µM): > 0.316 µM
IC50 (second compound 10 µM): > 0.316 µM
viability, T/C [37]: 108%
viability, T/C [38]: 89.9%
viability, T/C [39]: 87.1%
viability, T/C [1]: 95.8%
viability, T/C [40]: 92.2%
viability, T/C [3]: 79.7%
viability, T/C [41]: 98.7%
viability, T/C [42]: 85.4%
viability, T/C [43]: 99%
viability, T/C [7]: 88.6%
viability, T/C [44]: 79.6%
viability, T/C [9]: 81.2%
viability, T/C [45]: 94%
viability, T/C [46]: 87.4%
viability, T/C [47]: 93.1%
viability, T/C [13]: 87.9%
viability, T/C [48]: 88.5%
viability, T/C [15]: 70.5%
viability, T/C [49]: 103%
viability, T/C [50]: 86.6%
viability, T/C [51]: 85.5%
viability, T/C [19]: 85.5%
viability, T/C [52]: 82.5%
viability, T/C [21]: 69.5%
viability, T/C [53]: 73.5%
viability, T/C [54]: 72.7%
viability, T/C [55]: 81.6%
viability, T/C [25]: 89.9%
viability, T/C [56]: 83.1%
viability, T/C [27]: 70.9%
viability, T/C [57]: 76.2%
viability, T/C [58]: 74.9%
viability, T/C [59]: 80.6%
viability, T/C [31]: 77.6%
viability, T/C [60]: 82.2%
viability, T/C [33]: 66.1%
